From BindingDB's records for patent US11208411 (The Regents of the University of California; Washington …, 2021) come the findings set out here.

One may read the IC50 as the concentration needed to halve the response being measured. A higher IC50 goes with weaker potency in that assay.

The target of this assay is Proto-oncogene tyrosine-protein kinase Src (Homo sapiens, UniProt P12931). The assay can be described thus: Expression and Purification of Active Kinases.
Proto-oncogene tyrosine-protein kinase Src, sequence (P12931 2-536 limits assumed): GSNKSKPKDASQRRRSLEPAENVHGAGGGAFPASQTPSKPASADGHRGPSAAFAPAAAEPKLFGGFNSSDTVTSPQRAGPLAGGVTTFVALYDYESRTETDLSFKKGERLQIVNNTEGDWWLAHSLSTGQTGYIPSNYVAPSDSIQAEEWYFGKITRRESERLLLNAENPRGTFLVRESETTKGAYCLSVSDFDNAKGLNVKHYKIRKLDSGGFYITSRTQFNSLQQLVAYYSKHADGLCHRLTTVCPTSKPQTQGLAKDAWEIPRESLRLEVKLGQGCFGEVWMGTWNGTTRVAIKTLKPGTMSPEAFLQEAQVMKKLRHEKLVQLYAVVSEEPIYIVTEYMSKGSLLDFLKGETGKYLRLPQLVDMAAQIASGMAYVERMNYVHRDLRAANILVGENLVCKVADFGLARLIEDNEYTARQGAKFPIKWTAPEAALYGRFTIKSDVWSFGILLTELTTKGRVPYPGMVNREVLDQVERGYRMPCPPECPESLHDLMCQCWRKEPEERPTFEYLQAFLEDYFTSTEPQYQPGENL

Compound `CC(C)(C)n1nc(Cc2coc3ccccc23)c2c(N)ncnc21` [US11208411, Cmpd LJQ-145] gave an IC50 of 1570 nM.
